# According to patent publication US9815787B2, “Sulfonamide derivative or pharmaceutically acceptable acid addition salt thereof” (UNIVERSITY OF TSUKUBA, priority 2013, dated 2017):
# Target: T1, OX2R (Homo sapiens, UniProt O43614)
# T1 construct: expressed in transfected cells; host or cells: CHO (Chinese hamster ovary) cells constitutively expressing the OX2R gene and NFAT-luciferase (CHOOX2R)
# T1 sequence (O43614 1-444): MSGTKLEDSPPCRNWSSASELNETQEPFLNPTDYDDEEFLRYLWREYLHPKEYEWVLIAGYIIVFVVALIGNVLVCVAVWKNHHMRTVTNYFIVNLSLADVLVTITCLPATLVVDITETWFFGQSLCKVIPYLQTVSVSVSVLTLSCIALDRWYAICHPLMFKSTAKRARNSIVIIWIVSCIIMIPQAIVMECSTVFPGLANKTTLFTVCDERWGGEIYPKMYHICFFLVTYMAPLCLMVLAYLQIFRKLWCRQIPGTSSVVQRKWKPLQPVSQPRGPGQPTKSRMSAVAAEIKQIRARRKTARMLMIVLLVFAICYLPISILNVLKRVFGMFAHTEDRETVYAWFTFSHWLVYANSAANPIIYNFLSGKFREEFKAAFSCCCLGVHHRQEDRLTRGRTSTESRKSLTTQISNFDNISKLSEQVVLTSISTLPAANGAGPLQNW
# Assay: Evaluation of agonist activity against OX2R (CHOOX2R cells, Fura2AM fluorescence, FDSS3000)
# Format: cell-based
# Procedure, shortened: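 CHO cells stably expressing human OX2R (and NFAT-luciferase), cultured 48 h in 5% FBS DMEM. Agonist response read as change in Fura2AM fluorescence on compound addition in HEPES buffer. Final compound concentrations 0.1, 1.0 or 10 μM; 1% DMSO.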
# [1] = test compound 0.1 μM; relative to orexin-A as full agonist (100%); CHOOX2R cells
# [2] = test compound 1.0 μM; relative to orexin-A as full agonist (100%); CHOOX2R cells
# [3] = test compound 10 μM; relative to orexin-A as full agonist (100%); CHOOX2R cells
# [4] = test compound 0.1 μM; CHOOX2R cells; relative to orexin-A as full agonist (100%)
# [5] = test compound 1.0 μM; CHOOX2R cells; relative to orexin-A as full agonist (100%)
# [6] = test compound 10 μM; CHOOX2R cells; relative to orexin-A as full agonist (100%)
# [7] = OX2R agonist activity; CHOOX2R cells
# [8] = conversion with orexin-A as full agonist (maximum agonist activity 100%)
smiles,measurement,setting,value
"COc1cccc(C(=O)NCCNc2cccc(NS(=O)(=O)c3cc(-c4cc(Cl)cc(Cl)c4)ccc3OC)c2)c1 [Example 28, N-(2-((3-(3′,5′-dichloro-4-methoxy-[1,1′-biphenyl]-3-ylsulfonamide)phenyl)amino)ethyl)-3-methoxybenzamide]",Response (0.1 μM (%)),[1],<5%
same,Response (1.0 μM (%)),[2],<5%
same,Response (10 μM (%)),[3],<5%
"COc1ccc(-c2ccccc2F)cc1S(=O)(=O)Nc1cccc(NCCNC(=O)c2cccnc2)c1 [Example 15, N-(2-((3-(2′-fluoro-4-methoxy-[1,1′-biphenyl]-3-ylsulfonamide)phenyl)amino)ethyl)nicotineamide]",Response (0.1 μM (%)),[1],<5%
same,Response (1.0 μM (%)),[2],<5%
same,Response (10 μM (%)),[3],6%
"COc1cncc(-c2ccc(OC)c(S(=O)(=O)Nc3cccc(NCCNC(=O)c4ccccc4OC)c3)c2)c1 [Example 97, 2-methoxy-N-(2-((3-(2-methoxy-5-(5-methoxypyridin-3-yl)phenylsulfonamido)phenyl)amino)ethyl)benzamide]",Response (0.1 μM (%)),[4],<5%
same,Response (1.0 μM (%)),[5],12%
same,Response (10 μM (%)),[6],37%
"COc1ccc(-c2ccccc2F)cc1S(=O)(=O)Nc1cccc(NCCNC(=O)c2ccc(Cl)cc2)c1 [Example 9, 4-chloro-N-(2-((3-(2′-fluoro-4-methoxy-[1,1′-biphenyl]-3-ylsulfonamide)phenyl)amino)ethyl)benzamide]",Response (0.1 μM (%)),[1],<5%
same,Response (1.0 μM (%)),[2],<5%
same,Response (10 μM (%)),[3],<5%
"COc1ccccc1C(=O)NCCNc1cccc(NS(=O)(=O)c2cc(-c3cc(Cl)cc(Cl)c3)ccc2OC)c1 [Example 27, N-(2-((3-(3′,5′-dichloro-4-methoxy-[1,1′-biphenyl]-3-ylsulfonamide)phenyl)amino)ethyl)-2-methoxybenzamide]",Response (0.1 μM (%)),[1],<5%
same,Response (1.0 μM (%)),[2],<5%
same,Response (10 μM (%)),[3],<5%
"COc1ccccc1C(=O)NCCNc1cccc(NS(=O)(=O)c2cc(-c3cccc(C(=O)NCCO)c3)ccc2OC)c1 [Example 74, N-(2-hydroxyethyl)-4′-methoxy-3′-(N-(3-((2-(2-methoxybenzamido)ethyl)amino)phenyl)sulfamoyl)-[1,1′-biphenyl]-3-carboxamide]",Response (0.1 μM (%)),[4],<5%
same,Response (1.0 μM (%)),[5],51%
same,Response (10 μM (%)),[6],92%
"COc1ccccc1C(=O)NCCN(C)c1cccc(NS(=O)(=O)c2cc(-c3cccc(C(=O)N(C)C)c3)ccc2OC)c1 [Example 112, 4′-methoxy-3′-(N-(3-((2-(2-methoxybenzamido)ethyl) (methyl)amino)phenyl)sulfamoyl)-N,N-dimethyl-[1,1′-biphenyl]-3-carboxamide]",Response (0.1 μM (%)),[1],<5%
same,Response (1.0 μM (%)),[2],131%
same,Response (10 μM (%)),[3],139%
"COc1ccccc1C(=O)NCCNc1cccc(NS(=O)(=O)c2cc(-c3cccc(N)c3)ccc2OC)c1 [Example 37, N-(2-((3-(3′-amino-4-methoxy-[1,1′-biphenyl]-3-ylsulfonamide)phenyl)amino)ethyl)-2-methoxybenzamide]",Response (0.1 μM (%)),[4],16%
same,Response (1.0 μM (%)),[5],102%
same,Response (10 μM (%)),[6],163%
"COc1ccccc1C(=O)NCCNc1cccc(NS(=O)(=O)c2cc(-c3cccc(CO)c3)ccc2OC)c1 [Example 39, N-(2-((3-(3′-(hydroxymethyl)-4-methoxy-[1,1′-biphenyl]-3-ylsulfonamide)phenyl)amino)ethyl)-2-methoxybenzamide]",Response (0.1 μM (%)),[4],<5%
same,Response (1.0 μM (%)),[5],27%
same,Response (10 μM (%)),[6],102%
"COc1ccc(-c2cccc(C(=O)N(C)C)c2)cc1S(=O)(=O)Nc1cccc(NCCNC(=O)c2ccccc2F)c1 [Example 43, 3′-(N-(3-((2-(2-fluorobenzamido)ethyl)amino)phenyl)sulfamoyl)-4′-methoxy-N,N-dimethyl-[1,1′-biphenyl]-3-carboxamide]",EC50,[7],300 nM
same,Emax,[8],94%
same,Response (0.1 μM (%)),[4],<5%
same,Response (1.0 μM (%)),[5],55%
same,Response (10 μM (%)),[6],94%
"COc1cccc(C(=O)NCCNc2cccc(NS(=O)(=O)c3cc(-c4cc(Cl)ccc4Cl)ccc3OC)c2)c1 [Example 26, N-(2-((3-(2′,5′-dichloro-4-methoxy-[1,1′-biphenyl]-3-ylsulfonamide)phenyl)amino)ethyl)-3-methoxybenzamide]",Response (0.1 μM (%)),[1],<5%
same,Response (1.0 μM (%)),[2],5%
same,Response (10 μM (%)),[3],29%
"COc1ccc(-c2cccc(C(=O)N(C)C)c2)cc1S(=O)(=O)Nc1cccc(NCCNC(=O)c2nccn2C)c1 [Example 63, N-(2-((3-(3′-(dimethylcarbamoyl)-4-methoxy-[1,1′-biphenyl]-3-ylsulfonamido)phenyl)amino)ethyl)-1-methyl-1H-imidazole-2-carboxamide]",Response (0.1 μM (%)),[4],<5%
same,Response (1.0 μM (%)),[5],81%
same,Response (10 μM (%)),[6],82%
"COc1ccccc1C(=O)NCCNc1cccc(NS(=O)(=O)c2cc(-c3cc(F)ccc3Cl)ccc2OC)c1 [Example 32, N-(2-((3-(2′-chloro-5′-fluoro-4-methoxy-[1,1′-biphenyl]-3-ylsulfonamide)phenyl)amino)ethyl)-2-methoxybenzamide]",Response (0.1 μM (%)),[1],<5%
same,Response (1.0 μM (%)),[2],26%
same,Response (10 μM (%)),[3],75%
"COc1ccc(-c2cccc(C(=O)N(C)C)c2)cc1S(=O)(=O)Nc1cccc(NCCNC(=O)c2cccnc2Cl)c1 [Example 50, 2-chloro-N-(2-((3-(3′-(dimethylcarbamoyl)-4-methoxy-[1,1′-biphenyl]-3-ylsulfonamido)phenyl)amino)ethyl)nicotinamide]",Response (0.1 μM (%)),[4],<5%
same,Response (1.0 μM (%)),[5],71%
same,Response (10 μM (%)),[6],76%
"COc1ccc(-c2cccc(C(=O)N(C)C)c2)cc1S(=O)(=O)Nc1cccc(NCCNC(=O)c2cn(C)cn2)c1 [Example 64, N-(2-((3-(3′-(dimethylcarbamoyl)-4-methoxy-[1,1′-biphenyl]-3-ylsulfonamido)phenyl)amino)ethyl)-1-methyl-1H-imidazole-4-carboxamide]",Response (0.1 μM (%)),[4],<5%
same,Response (1.0 μM (%)),[5],68%
same,Response (10 μM (%)),[6],72%
"COc1ccc(-c2ccccc2F)cc1S(=O)(=O)Nc1cccc(NCCNC(=O)c2ccncc2)c1 [Example 16, N-(2-((3-(2′-fluoro-4-methoxy-[1,1′-biphenyl]-3-ylsulfonamide)phenyl)amino)ethyl)isonicotinamide]",Response (0.1 μM (%)),[1],<5%
same,Response (1.0 μM (%)),[2],<5%
same,Response (10 μM (%)),[3],<5%
"COc1ccc(-c2cccc(C(=O)N3CCCC3)c2)cc1S(=O)(=O)Nc1cccc(NCCNC(=O)c2c(F)cccc2F)c1 [Example 88, 2,6-difluoro-N-(2-((3-(4-methoxy-3′-(pyrrolidine-1-carbonyl)-[1,1′-biphenyl]-3-ylsulfonamido)phenyl)amino)ethyl)benzamide]",Response (0.1 μM (%)),[4],76%
same,Response (1.0 μM (%)),[5],100%
same,Response (10 μM (%)),[6],86%
"COc1ccc(-c2cccc(C(=O)N(C)C)c2)cc1S(=O)(=O)Nc1cccc(NCCNC(=O)c2cccc(F)c2)c1 [Example 52, 3′-(N-(3-((2-(3-fluorobenzamido)ethyl)amino)phenyl)sulfamoyl)-4′-methoxy-N,N-dimethyl-[1,1′-biphenyl]-3-carboxamide]",EC50,[7],783 nM
same,Emax,[8],84%
same,Response (0.1 μM (%)),[4],40%
same,Response (1.0 μM (%)),[5],79%
same,Response (10 μM (%)),[6],64%
"COc1cccc(C(=O)NCCNc2cccc(NS(=O)(=O)c3cc(-c4cccc(C(=O)N5CCC5)c4)ccc3OC)c2)n1 [Example 83, N-(2-((3-(3′-(azetidine-1-carbonyl)-4-methoxy-[1,1′-biphenyl]-3-ylsulfonamido)phenyl)amino)ethyl)-6-methoxypicolinamide]",Response (0.1 μM (%)),[4],<5%
same,Response (1.0 μM (%)),[5],10%
same,Response (10 μM (%)),[6],71%
